Data published in patent US12528837B2, “Aryl substituted polymyxin derivatives” (priority 2018, dated 2026).
Converted amounts (≈) assume the structure as drawn. Read-outs that look alike come from different tables or passages of the source. Where a SMILES comes first, the peptide text is derived from it. Bridges are numbered along the chain shown (N, C = ends). [ ]: non-standard residue; d: D form. The star is where a group is joined. X6 = CC(C)Cc1cccc([C@@H](CN)CC(=O)*)c1; X3 = CC(C)c1cccc([C@@H](CN)CC(=O)*)c1; X9 = CC(C)c1cccc([C@H](CN)CC(=O)*)c1; X8 = NC[C@@H](CC(=O)*)Cc1cccc(Cl)c1; X12 = NC[C@H](CC(=O)*)c1cccc(Br)c1; X13 = Cc1cccc([C@H](CN)CC(=O)*)c1; X5 = NC[C@H](CC(=O)*)c1ccc(Cl)cc1; Dab = NCC[C@H](N)C(=O)O; Abu = CC[C@H](N)C(=O)O; Dap = NC[C@H](N)C(=O)O

Columns and labels:
HK-2 cells = assay: In vitro renal cell toxicity assay (HK-2); assay type: cell-based
How it was run: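 HK-2 cells seeded 7,500/well, adhered overnight, then exposed to compound for 24 h at 37° C, 5% CO2, with 5% water and 0.5% DMSO. Background-subtracted, vehicle-normalised dose-response fitted with bottom fixed at zero; IC50 reported relative to PMB in the same run, median where repeated.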

[1] = Kidney drug level after subcutaneous dose in mouse; assay type: in vivo; conditions: mouse, in vivo; for tissue level at time at 4 h: sc, 17.2 mg/kg
How it was run: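 Mice were euthanised four hours after subcutaneous dosing. Both kidneys were trimmed, weighed, snap-frozen, then homogenised with zirconium oxide beads. After centrifugation (13,000 rpm, 6 °C, 10 min), supernatants were analysed by LC-MS-MS.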

E. coli CA58 = assay type: cell-based
How it was run: (§1)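 MIC (μg/mL), duplicate runs; median value where a compound was tested repeatedly. Inoculum: colonies from 18-24 h Mueller-Hinton agar, suspended directly to 0.5 McFarland.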

K. pneumoniae CA64 = assay type: cell-based
How it was run: as §1

P. aeruginosa CCUG 59347 = assay type: cell-based
How it was run: as §1

[2] = test system: A. baumannii ATCC BAA-747; assay type: cell-based
Protocol: (§2) The inoculum was prepared by making a direct suspension of isolated colonies (selected from an 18-24 hour Mueller-Hinton agar plate) adjusted to the 0.5 McFarland standard. […] The assays were performed in duplicate. […] The MIC values are quoted in μg/mL.

A. baumannii NCTC 13424 = assay type: cell-based
Protocol: as §2

E. coli ATCC 25922 = assay type: cell-based
Protocol: as §2

K. pneumoniae ATCC 13822 = assay type: cell-based
Protocol: as §2

P. aeruginosa ATCC 27853 = assay type: cell-based
Protocol: as §2

[3] = cation-adjusted Mueller-Hinton Broth, 18-20 h, 35° C.

| Compound | HK-2 rel to PMB (HK-2 cells) | 4 hr kidney level/rel. cytotoxicity [1] | tissue level at time at 4 h [1] [ng/g] | MIC E. coli CA58 (E. coli CA58; CA58) [µg/mL] | MIC K. pneumoniae CA64 (K. pneumoniae CA64; CA64) [µg/mL] | MIC P. aeruginosa CCUG 59347 (P. aeruginosa CCUG 59347; CCUG 59347) [µg/mL] | MIC A. baumannii ATCC BAA-747 ([2]; ATCC BAA-747) [µg/mL] | MIC A. baumannii NCTC 13424 (A. baumannii NCTC 13424; NCTC 13424) [µg/mL] | MIC E. coli ATCC 25922 (E. coli ATCC 25922; ATCC 25922) [µg/mL] | MIC K. pneumoniae ATCC 13822 (K. pneumoniae ATCC 13822; ATCC 13822) [µg/mL] | MIC P. aeruginosa ATCC 27853 (P. aeruginosa ATCC 27853; ATCC 27853) [µg/mL] | MIC E. coli CA58 (E. coli CA58; [3]) [µg/mL] | MIC K. pneumoniae CA64 (K. pneumoniae CA64; [3]) [µg/mL] | MIC P. aeruginosa CCUG 59347 (P. aeruginosa CCUG 59347; [3]) [µg/mL] | MIC A. baumannii ATCC BAA-747 [2, 3] [µg/mL] | MIC A. baumannii NCTC 13424 (A. baumannii NCTC 13424; [3]) [µg/mL] | MIC E. coli ATCC 25922 (E. coli ATCC 25922; [3]) [µg/mL] | MIC K. pneumoniae ATCC 13822 (K. pneumoniae ATCC 13822; [3]) [µg/mL] | MIC P. aeruginosa ATCC 27853 (P. aeruginosa ATCC 27853; [3]) [µg/mL] |
| --- | --- | --- | --- | --- | --- | --- | --- | --- | --- | --- | --- | --- | --- | --- | --- | --- | --- | --- | --- |
| CC(C)C[C@@H]1NC(=O)[C@@H](Cc2ccccc2)NC(=O)[C@H](CCN)NC(=O)[C@@H](NC(=O)[C@H](CN)NC(=O)[C@@H](NC(=O)C[C@@H](CN)c2ccc(Cl)cc2)[C@@H](C)O)CCNC(=O)[C@H]([C@@H](C)O)NC(=O)[C@H](CCN)NC(=O)[C@H](CCN)NC1=O [Example 2, (R)-4-amino-3-(4- chlorophenyl)butanoyl- Thr-Dap-Cyclo[Dab- Dab-DPhe-Leu-Dab- Dab-Thr]] (X5-T[Dap][Dab][Dab][dF]L[Dab][Dab]T; lactam 3-C) | 7.2 | 75 | 538000 | 8 (≈ 6.99 µM) | 2 (≈ 1.75 µM) | 0.5 (≈ 0.437 µM) | 0.25 (≈ 0.218 µM) | 0.25 (≈ 0.218 µM) | 0.25 (≈ 0.218 µM) | 0.25 (≈ 0.218 µM) | 0.25 (≈ 0.218 µM) |  |  |  |  |  |  |  |  |
| CC(C)C[C@@H]1NC(=O)[C@@H](Cc2ccccc2)NC(=O)[C@H](CCN)NC(=O)[C@@H](NC(=O)[C@H](CN)NC(=O)[C@@H](NC(=O)C[C@H](CN)Cc2cccc(Cl)c2)[C@@H](C)O)CCNC(=O)[C@H]([C@@H](C)O)NC(=O)[C@H](CCN)NC(=O)[C@H](CCN)NC1=O [Example 11, (R)-4-amino-3-(3- chlorobenzyl)butanoyl- Thr-Dap-Cyclo[Dab- Dab-DPhe-Leu-Dab- Dab-Thr]. Isomer 1] (X8-T[Dap][Dab][Dab][dF]L[Dab][Dab]T; lactam 3-C) | 5.2 |  | 163000 | 4 (≈ 3.45 µM) | 16 (≈ 13.8 µM) | 0.5 (≈ 0.431 µM) | 0.5 (≈ 0.431 µM) | 0.25 (≈ 0.216 µM) | 0.5 (≈ 0.431 µM) | 0.5 (≈ 0.431 µM) | 0.25 (≈ 0.216 µM) |  |  |  |  |  |  |  |  |
| CC(C)C[C@H]1NC(=O)[C@H](CCN)NC(=O)[C@@H](NC(=O)[C@H](CN)NC(=O)[C@@H](NC(=O)C[C@H](CN)c2cccc(C(C)C)c2)[C@@H](C)O)CCNC(=O)[C@H]([C@@H](C)O)NC(=O)[C@H](CCN)NC(=O)[C@H](CCN)NC(=O)[C@H]([C@@H](C)O)NC1=O [Example 19, (S)-4-amino-3-(3- isopropylphenyl) butanoyl-Thr-Dap- Cyclo[Dab-Dab-DLeu- Thr-Dab-Dab-Thr]] (X3-T[Dap][Dab][Dab][dL]T[Dab][Dab]T; lactam 3-C) | 101.4 |  | 386000 | 32 (≈ 28.9 µM) | 64 (≈ 57.8 µM) | 1 (≈ 0.904 µM) | 0.25 (≈ 0.226 µM) | 0.25 (≈ 0.226 µM) | 0.25 (≈ 0.226 µM) | 0.25 (≈ 0.226 µM) | 0.25 (≈ 0.226 µM) |  |  |  |  |  |  |  |  |
| CC(C)C[C@H]1NC(=O)[C@H](CCN)NC(=O)[C@@H](NC(=O)[C@H](CN)NC(=O)[C@@H](NC(=O)C[C@@H](CN)c2cccc(C(C)C)c2)[C@@H](C)O)CCNC(=O)[C@H]([C@@H](C)O)NC(=O)[C@H](CCN)NC(=O)[C@H](CCN)NC(=O)[C@H]([C@@H](C)O)NC1=O [Example 20, (R)-4-amino-3-(3- isopropylphenyl) butanoyl-Thr-Dap- Cyclo[Dab-Dab-DLeu- Thr-Dab-Dab-Thr]] (X9-T[Dap][Dab][Dab][dL]T[Dab][Dab]T; lactam 3-C) |  |  |  |  |  |  |  |  |  |  |  | 64 (≈ 57.8 µM) | 64 (≈ 57.8 µM) | 2 (≈ 1.81 µM) | 2 (≈ 1.81 µM) | 1 (≈ 0.904 µM) | 1 (≈ 0.904 µM) | 2 (≈ 1.81 µM) | 0.5 (≈ 0.452 µM) |
| Cc1cccc([C@H](CN)CC(=O)N[C@H](C(=O)N[C@@H](CN)C(=O)N[C@H]2CCNC(=O)[C@H]([C@@H](C)O)NC(=O)[C@H](CCN)NC(=O)[C@H](CCN)NC(=O)[C@H](CC(C)C)NC(=O)[C@@H](Cc3ccccc3)NC(=O)[C@H](CCN)NC2=O)[C@@H](C)O)c1 [Example 22, (R)-4-amino-3-(m- toly)butanoyl-Thr- Dap-Cyclo[Dab-Dab- DPhe-Leu-Dab-Dab- Thr]] (X13-T[Dap][Dab][Dab][dF]L[Dab][Dab]T; lactam 3-C) |  |  |  |  |  |  |  |  |  |  |  | 16 (≈ 14.2 µM) | 8 (≈ 7.12 µM) | 0.5 (≈ 0.445 µM) | 1 (≈ 0.889 µM) | 1 (≈ 0.889 µM) | 0.25 (≈ 0.222 µM) | 0.25 (≈ 0.222 µM) | 0.25 (≈ 0.222 µM) |
| CC[C@@H]1NC(=O)[C@@H](CC(C)C)NC(=O)[C@H](CCN)NC(=O)[C@@H](NC(=O)[C@H](CN)NC(=O)[C@@H](NC(=O)C[C@H](CN)c2cccc(CC(C)C)c2)[C@@H](C)O)CCNC(=O)[C@H]([C@@H](C)O)NC(=O)[C@H](CCN)NC(=O)[C@H](CCN)NC1=O [Example 26, (S)-4-amino-3-(3- isobutylphenyl)butanoyl- Thr-Dap- Cyclo[Dab-Dab-DLeu- Abu-Dab-Dab-Thr]] (X6-T[Dap][Dab][Dab][dL][Abu][Dab][Dab]T; lactam 3-C) | >58 |  | 353000 | 8 (≈ 7.24 µM) | 8 (≈ 7.24 µM) | 0.5 (≈ 0.453 µM) | 0.06 (≈ 0.0543 µM) | 0.03 (≈ 0.0272 µM) | 0.06 (≈ 0.0543 µM) | 0.5 (≈ 0.453 µM) | 0.25 (≈ 0.226 µM) |  |  |  |  |  |  |  |  |
| CC[C@@H]1NC(=O)[C@@H](CC(C)C)NC(=O)[C@H](CCN)NC(=O)[C@@H](NC(=O)[C@H](CN)NC(=O)[C@@H](NC(=O)C[C@@H](CN)c2cccc(Br)c2)[C@@H](C)O)CCNC(=O)[C@H]([C@@H](C)O)NC(=O)[C@H](CCN)NC(=O)[C@H](CCN)NC1=O [Example 33, (R)-4-amino-3-(3- bromophenyl)butanoyl- Thr-Dap-Cyclo[Dab- Dab-DLeu-Abu-Dab- Dab-Thr],] (X12-T[Dap][Dab][Dab][dL][Abu][Dab][Dab]T; lactam 3-C) |  |  |  |  |  |  |  |  |  |  |  | 64 (≈ 56.8 µM) | 16 (≈ 14.2 µM) | 0.5 (≈ 0.444 µM) | 1 (≈ 0.887 µM) | 1 (≈ 0.887 µM) | 0.5 (≈ 0.444 µM) | 0.5 (≈ 0.444 µM) | 0.5 (≈ 0.444 µM) |
